Earlier results, collected in publication PMC10096175, “An In Vitro Antimicrobial, Anticancer and Antioxidant Activity of N–[(2–Arylmethylthio)phenylsulfonyl]cinnamamide Derivatives” (Molecules, 2023).
Values after ≈ are worked out from the molar mass of the structure shown.

Experiments:
S. aureus = system: S. aureus; design: method as in PMID 19231901; details: cited from earlier work
E. coli = system: E. coli; design: method as in PMID 19231901; details: cited from earlier work
[1] = system: quorum sensing system of C. violaceum; design: method as in doi:10.1016/j.ibiod.2018.06.003; details: at 1 mM; cited from earlier work
[2] = system: human breast cancer MCF-7 cells; design: method as in PMID 30389289; details: cited from earlier work
[3] = system: mouse melanoma B16–F10 cell line; design: method as in PMID 21783370; details: cited from earlier work

## COC(=O)/C=C/c1ccccc1 [methyl trans-cinnamate]
S. aureus
  Concentration that completely inhibited growth: 3.1 mM
E. coli
  Concentration that completely inhibited growth: 6.2 mM
[1]
  Quorum sensing inhibition: completely inhibit

## O=C(/C=C/c1ccc2c(c1)OCO2)NS(=O)(=O)c1ccccc1 [(E)–3–(benzo[d][1,3]dioxol–5–yl)–N–(phenylsulfonyl)acrylamide]
[2]
  IC50: 0.17 µg/mL (≈ 0.513 µM)

## O=C(/C=C/c1ccc(F)cc1)NS(=O)(=O)c1ccc(F)cc1 [(E)–3–(4–fluorophenyl)–N–(4-fluorophenylsulfonyl)acrylamide]
[3]
  IC50: 0.8 µg/mL (≈ 2.47 µM)

## O=C(/C=C/c1ccc(Br)cc1)NS(=O)(=O)c1ccc(F)cc1 [(E)–3–(4–bromophenyl)–N–(4–fluorophenylsulfonyl)acrylamide]
[3]
  IC50: 1.2 µg/mL (≈ 3.12 µM)
